Measured values reported in ChEMBL document CHEMBL1124317, “Rationale for the synthesis and preliminary biological evaluation of highly active new antitumor nitrosoureido sugars” (J Med Chem, 1989).

How the values were obtained:
Assay type in all cases: functional
Mus musculus [1] = assay: The number of B16 Melanocarcinoma mice survived after 60 days with compound injected by a dose of 20 mg/kg intraperitoneally; 9/10; conditions: route intraperitoneal
Mus musculus [2] = assay: The number of B16 Melanocarcinoma mice survived after 30 days with compound injected by a dose of 30 mg/kg intraperitoneally; 10/10; conditions: route intraperitoneal
Mus musculus [3] = assay: Median survival time of the non surviving mice; treated with 0.625 mg/kg of compound to mice with L1210 leukemia; 10-12
Mus musculus [4] = assay: The number of L1210 Leukemia mice survived after 30 days with compound in olive oil injected by a dose of 20 mg/kg intraperitoneally; 15/15; conditions: route intraperitoneal
[5] = Mortality range of the mice with L1210 leukemia treated with 0.625 mg/kg of dose intraperitoneally with no of mice survived/no of mice treated; 0/8; conditions: route intraperitoneal
Mus musculus [6] = assay: The number of B16 Melanocarcinoma mice survived after 60 days with compound injected by a dose of 5 mg/kg intraperitoneally; 1/10; conditions: route intraperitoneal
Mus musculus [7] = assay: Median survival time of the non surviving mice; treated with 2.5 mg/kg of compound to mice with L1210 leukemia; 11-14
Mus musculus [8] = assay: The number of Lewis lung mice survived after 30 days with compound in olive oil injected by a dose of 20 mg/kg intraperitoneally; 20/20; conditions: route intraperitoneal
[9] = Ratio of mice died to that of mice treated with 20 mg/kg of compound in olive oil intraperitoneally with Lewis lung; 0/20; conditions: route intraperitoneal
Mus musculus [10] = assay: The number of L1210 leukemia mice survived after 60 days with compound injected by a dose of 10 mg/kg intraperitoneally; 9/10; conditions: route intraperitoneal
Mus musculus [11] = assay: Median survival time of the non surviving mice; treated with 2.5 mg/kg of compound to mice with L1210 leukemia; 40-54
Mus musculus [12] = assay: The number of L1210 leukemia mice survived after 60 days with compound injected by a dose of 2.5 mg/kg intraperitoneally; 0/8; conditions: route intraperitoneal
Mus musculus [13] = assay: The number of B16 Melanocarcinoma mice survived after 60 days with compound injected by a dose of 10 mg/kg intraperitoneally; 3/10; conditions: route intraperitoneal
Mus musculus [14] = assay: The number of L1210 leukemia mice survived after 30 days with compound injected by a dose of 30 mg/kg intraperitoneally; 9/10; conditions: route intraperitoneal
Mus musculus [15] = assay: Median survival time of the non surviving mice; treated with 10 mg/kg of compound to mice with B16 Melanocarcinoma; 34-47
[16] = Mortality range of the mice with L1210 leukemia treated with 5 mg/kg of dose intraperitoneally with no of mice survived/no of mice treated; 0/8; conditions: route intraperitoneal
[17] = Mortality range of the mice with L1210 leukemia treated with 2.5 mg/kg of dose intra peritoneally with no of mice survived/no of mice treated; 0/10
[18] = Mortality range of the mice with L1210 leukemia treated with 20 mg/kg of dose intraperitoneally with no of mice survived/no of mice treated; 0/10; conditions: route intraperitoneal
Mus musculus [19] = assay: The number of L1210 leukemia mice survived after 60 days with compound injected by a dose of 20 mg/kg intraperitoneally; 10/10; conditions: route intraperitoneal
Mus musculus [20] = assay: The number of L1210 leukemia mice survived after 30 days with compound injected by a dose of 10 mg/kg intraperitoneally; 9/10; conditions: route intraperitoneal
Mus musculus [21] = assay: The number of L1210 Leukemia mice survived after 60 days with compound in olive oil injected by a dose of 20 mg/kg intraperitoneally; 7/15; conditions: route intraperitoneal
[22] = Mortality range of the mice with L1210 leukemia treated with 30 mg/kg of dose intraperitoneally with no of mice survived/no of mice treated; 1/10; conditions: route intraperitoneal
Mus musculus [23] = assay: Median survival time of the non surviving mice; treated with 1.25 mg/kg of compound to mice with L1210 leukemia; 16-19
[24] = Mortality range of the mice with L1210 leukemia treated with 5 mg/kg of dose intraperitoneally with no of mice survived/no of mice treated; 0/10; conditions: route intraperitoneal
[25] = Mortality range of the mice with L1210 leukemia treated with 10 mg/kg of dose intraperitoneally with no of mice survived/no of mice treated; 0/10; conditions: route intraperitoneal
[26] = Mortality range of the mice with B16 Melanocarcinoma treated with 5 mg/kg of dose intraperitoneally with no of mice survived/no of mice treated; 0/10; conditions: route intraperitoneal
Mus musculus [27] = assay: The number of L1210 leukemia mice survived after 60 days with compound injected by a dose of 5 mg/kg intraperitoneally; 8/8; conditions: route intraperitoneal
Mus musculus [28] = assay: The number of Lewis lung mice survived after 60 days with compound in olive oil injected by a dose of 20 mg/kg intraperitoneally; 18/20; conditions: route intraperitoneal

CO[C@@H]1C[C@@H](NC(=O)N(CCCl)N=O)[C@H](O)[C@@H](CO)O1 [ECOMUSTINE]
Survivals (Mus musculus [1]): 9
Survivals (Mus musculus [2]): 10
Median survival time (Mus musculus [3]): 11.25
Survivals (Mus musculus [4]): 15
Ratio [5]: 0
Survivals (Mus musculus [6]): 1
Median survival time (Mus musculus [7]): 12.9
Survivals (Mus musculus [8]): 20
Ratio [9]: 0
Survivals (Mus musculus [10]): 9
Median survival time (Mus musculus [11]): 43.2
Survivals (Mus musculus [12]): 0
Survivals (Mus musculus [13]): 3
Survivals (Mus musculus [14]): 9
Median survival time (Mus musculus [15]): 44
Ratio [16]: 0
Ratio [17]: 0
Ratio [18]: 0
Survivals (Mus musculus [19]): 10
Survivals (Mus musculus [20]): 9
Survivals (Mus musculus [21]): 7
Ratio [22]: 1
Median survival time (Mus musculus [23]): 16.9
Ratio [24]: 0
Ratio [25]: 0
Ratio [26]: 0
Survivals (Mus musculus [27]): 8
Survivals (Mus musculus [28]): 18
